Structures are written as SMILES.

One assay deals with CK1ε (Homo sapiens (Human), UniProt P49674). Kind of assay: CK1ε kinase assay (Caliper LABCHIP electrophoretic separation of fluoresceinated peptide substrate and product). As to conditions: 200 pM enzyme, 50 μM ATP, 22 hours at room temperature. The class given is biochemical. In outline:
(§1)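 Compounds, taken from 10 mM DMSO stocks, are titrated at eleven concentrations. Kinase reactions proceed for 22 hours at room temperature and are quenched with EDTA. Substrate and product are resolved electrophoretically, and IC50 values are fitted by non-linear regression.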

In the next assay the target is CK1δ (Homo sapiens (Human), UniProt P48730). Description: CK1δ kinase assay (Caliper LABCHIP electrophoretic separation of fluoresceinated peptide substrate and product). It is filed as biochemical. As to conditions: 200 pM enzyme, 50 μM ATP, 22 hours at room temperature. In outline:
as §1

Sequence of CK1ε (P49674 whole entry): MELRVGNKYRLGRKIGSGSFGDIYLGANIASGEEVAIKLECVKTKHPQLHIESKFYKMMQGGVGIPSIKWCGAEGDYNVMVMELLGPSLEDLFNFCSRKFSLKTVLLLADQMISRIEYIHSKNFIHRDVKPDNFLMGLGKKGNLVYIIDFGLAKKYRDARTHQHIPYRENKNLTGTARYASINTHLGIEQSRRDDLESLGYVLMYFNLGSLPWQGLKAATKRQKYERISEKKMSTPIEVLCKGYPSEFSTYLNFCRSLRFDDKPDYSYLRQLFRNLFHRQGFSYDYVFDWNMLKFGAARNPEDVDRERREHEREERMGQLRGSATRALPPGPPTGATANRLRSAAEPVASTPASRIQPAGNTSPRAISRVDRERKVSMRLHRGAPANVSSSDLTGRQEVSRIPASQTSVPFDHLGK
Sequence of CK1δ (P48730 whole entry): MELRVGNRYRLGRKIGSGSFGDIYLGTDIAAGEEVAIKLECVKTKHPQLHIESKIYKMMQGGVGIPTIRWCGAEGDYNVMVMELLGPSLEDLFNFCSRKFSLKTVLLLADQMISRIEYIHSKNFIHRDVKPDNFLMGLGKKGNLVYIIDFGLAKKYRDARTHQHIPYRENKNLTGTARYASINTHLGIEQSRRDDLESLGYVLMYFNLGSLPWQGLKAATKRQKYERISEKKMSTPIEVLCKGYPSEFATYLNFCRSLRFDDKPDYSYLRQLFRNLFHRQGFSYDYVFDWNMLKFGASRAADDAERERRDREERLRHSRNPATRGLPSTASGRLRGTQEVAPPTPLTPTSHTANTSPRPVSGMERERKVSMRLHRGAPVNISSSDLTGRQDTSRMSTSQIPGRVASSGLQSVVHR

The IC50 is the midpoint of a concentration-inhibition curve. A higher IC50 goes with a need for much substance. Take `O=C(Nc1cn2nc(-c3c(-c4ccc(F)cc4)nc(C4CC4)n3C3CCN(Cc4ccncc4)CC3)ccc2n1)c1ccnc(F)c1` [Compound 131, N-(6-(2-cyclopropyl-4-(4-fluorophenyl)-1-(1-(pyridin-4-ylmethyl)piperidin-4-yl)-1H-imidazol-5-yl)imidazo [1,2-b]pyridazin-2-yl)-2-fluoroisonicotinamide]: the 50% inhibitory concentration (IC50) against CK1ε is 20.7 nM; against CK1δ, 1.97 nM.
Taken in the same sequence, the figures for `Cc1nc(-c2ccc(F)cc2)c(-c2ccc3nc(NC(=O)c4ccc(-n5cccn5)nc4)cn3n2)n1C` [Compound 314, N-(6-(4-(4-fluorophenyl)-1,2-dimethyl-1H-imidazol-5-yl)imidazo[1,2-b]pyridazin-2-yl)-6-(1H-pyrazol-1-yl) nicotinamide] were 3.1 nM and 0.479 nM.
As to `Cc1nc(C(=O)Nc2cn3nc(-c4c(-c5ccc(F)cc5)nc(C)n4C)ccc3n2)co1` [Compound 371, N-(6-(4-(4-fluorophenyl)-1,2-dimethyl-1H-imidazol-5-yl)imidazo[1,2-b]pyridazin-2-yl)-2-methyl-1,3-oxazole-4-carboxamide], the IC50 at CK1ε was determined as 19.8 nM; against CK1δ, 2.5 nM.
Taken in the same sequence, the figures for `O=C(Nc1cn2nc(-c3c(-c4ccc(F)cc4)nc(C4CC4)n3C3CCNCC3)ccc2n1)c1cccc(-c2cccnc2)c1` [Compound 135, N-(6-(2-cyclopropyl-4-(4-fluorophenyl)-1-(piperidin-4-yl)-1H-imidazol-5-yl)imidazo[1,2-b]pyridazin-2-yl)-3-(pyridin-3-yl)benzamide] were 2.6 nM and 0.745 nM.
Taken in the same sequence, the figures for `N#CC1(C(=O)N2CCC(n3cnc(-c4ccc(F)cc4)c3-c3ccc4nc(NC(=O)c5ccnc(F)c5)cn4n3)CC2)CC1` [Compound 71, N-(6-(1-(1-(1-cyanocyclopropanecarbonyl)piperidin-4-yl)-4-(4-fluorophenyl)-1H-imidazol-5-yl)imidazo[1,2-b]pyridazin-2-yl)-2-fluoroisonicotinamide] were 0.676 nM and 0.172 nM.
The like results for `Cc1nc(-c2ccc(F)cc2)c(-c2ccc3nc(NC(=O)c4sc(-c5ccncc5)nc4C(F)(F)F)cn3n2)n1C` [Compound 405, N-(6-(4-(4-Fluorophenyl)-1,2-dimethyl-1H-imidazol-5-yl)imidazo[1,2-b]pyridazin-2-yl)-2-(pyridin-4-yl)-4-(trifluoromethyl)thiazole-5-carboxamide] were, in that order, 4.21 nM and 1.04 nM.
For the molecule `CNc1ccc2nc(-c3ccc(F)cc3)c(-c3ccc4nc(NC(=O)c5ccncc5)cn4n3)n2n1` [Compound 225, N-(2-(4-fluorophenyl)-6-(methyl-amino)-[3,6′-biimidazo[1,2-b]pyridazin]-2′-yl)isonicotinamide], the half-inhibitory concentration (IC50) was 10.4 nM on CK1ε and 2.82 nM on CK1δ.
Taken in the same sequence, the figures for `O=C(Nc1cn2nc(-c3c(-c4ccc(F)cc4)ncn3C3CN(CCO)C3)ccc2n1)c1ccncc1` [Compound 159, N-(6-(4-(4-fluorophenyl)-1-(1-(2-hydroxyethyl)azetidin-3-yl)-1H-imidazol-5-yl)imidazo[1,2-b]pyridazin-2-yl)isonicotinamide] were 5.6 nM and 1.31 nM.
The like results for `Cc1onc(-c2ccccc2)c1C(=O)Nc1cn2nc(-c3c(-c4ccc(F)cc4)nc4ccccn34)ccc2n1` [Compound 210, N-(6-(2-(4-fluorophenyl)imidazo[1,2-a]pyridin-3-yl)imidazo[1,2-b]pyridazin-2-yl)-5-methyl-3-phenylisoxazole-4-carboxamide] were, in that order, 75.1 nM and 17.6 nM.
Consider `O=C(Nc1cn2nc(-c3c(-c4ccc(F)cc4)ncn3C3CCN(S(=O)(=O)C4CC4)CC3)ccc2n1)c1ccnc(F)c1` [Compound 74, N-(6-(1-(1-(cyclopropylsulfonyl)piperidin-4-yl)-4-(4-fluorophenyl)-1H-imidazol-5-yl)imidazo[1,2-b]pyridazin-2-yl)-2-fluoroisonicotinamide], for which the IC50 against CK1ε was found to be 1.52 nM; at CK1δ it was 0.675 nM.
Taken in the same sequence, the figures for `O=C(Nc1cn2nc(-c3c(-c4ccc(F)cc4)ncn3CCN3CCOCC3)ccc2n1)c1cccc(-c2cccnc2)c1` [Compound 167, N-(6-(4-(4-fluorophenyl)-1-(2-morpholinoethyl)-1H-imidazol-5-yl)imidazo[1,2-b]pyridazin-2-yl)-3-(pyridin-3-yl)benzamide] were 0.687 nM and 0.104 nM.
Taken in the same sequence, the figures for `Cn1ccc(Cn2cnc(-c3ccc(F)cc3)c2-c2ccc3nc(NC(=O)c4ccnc(F)c4)cn3n2)n1` [Compound 269, 2-fluoro-N-(6-(4-(4-fluorophenyl)-1-((1-methyl-1H-pyrazol-3-yl)methyl)-1H-imidazol-5-yl)imidazo[1,2-b]pyridazin-2-yl) isonicotinamide] were 9.39 nM and 1.08 nM.
Taken in the same sequence, the figures for `Cn1cc(Cn2cnc(-c3ccc(F)cc3)c2-c2ccc3nc(NC(=O)c4ccnc(F)c4)cn3n2)cn1` [Compound 259, 2-fluoro-N-(6-(4-(4-fluorophenyl)-1-((1-methyl-1H-pyrazol-4-yl)methyl)-1H-imidazol-5-yl)imidazo[1,2-b]pyridazin-2-yl) isonicotinamide] were 3.17 nM and 0.314 nM.
On to `O=C(Nc1cn2nc(-c3c(-c4ccc(F)cc4)nc4n3CCCC4)ccc2n1)c1ccncc1` [Compound 444, N-(6-(2-(4-Fluorophenyl)-5,6,7,8-tetrahydroimidazo[1,2-a]pyridin-3-yl)imidazo[1,2-b]pyridazin-2-yl)isonicotinamide], for which the figures for the IC50 at CK1ε and against CK1δ were 2.4 nM and 0.2 nM, respectively.
Taken in the same sequence, the figures for `Cc1nc(-c2ccc(F)cc2)c(-c2ccc3nc(NC(=O)c4cccc5cccnc45)cn3n2)n1C` [Compound 344, N-(6-(4-(4-fluorophenyl)-1,2-dimethyl-1H-imidazol-5-yl)imidazo[1,2-b]pyridazin-2-yl)-8-quinolinecarboxamide] were 113 nM and 14.5 nM.
Taken in the same sequence, the figures for `O=C(Nc1cn2nc(-c3c(-c4ccc(F)cc4)ncn3C3CCNCC3)ccc2n1)c1ccnc(N2CCOCC2)c1` [Compound 106, N-(6-(4-(4-fluorophenyl)-1-(piperidin-4-yl)-1H-imidazol-5-yl)imidazo[1,2-b]pyridazin-2-yl)-2-morpholinoisonicotinamide] were 3.12 nM and 0.732 nM.
The like results for `O=C(Nc1cn2nc(-c3c(-c4ccc(F)cc4)nc(C4CC4)n3C3CCN(C(=O)CC(F)(F)F)CC3)ccc2n1)c1ccnc(F)c1` [Compound 127, N-(6-(2-cyclopropyl-4-(4-fluorophenyl)-1-(1-(3,3,3-trifluoropropanoyl)piperidin-4-yl)-1H-imidazol-5-yl)imidazo [1,2-b]pyridazin-2-yl)-2-fluoroisonicotinamide] were, in that order, 10.1 nM and 1.75 nM.
As to `Cc1ccc(-c2nc(C)n(C)c2-c2ccc3nc(NC(=O)c4ccnc(F)c4)cn3n2)cc1` [Compound 300, N-(6-(1,2-dimethyl-4-(p-tolyl)-1H-imidazol-5-yl)imidazo[1,2-b]pyridazin-2-yl)-2-fluoroiso-nicotinamide], the IC50 at CK1ε was determined as 34.3 nM; against CK1δ, 1.8 nM.
As to `O=C(Nc1cn2nc(-c3c(-c4ccc(F)cc4)nc4ccccn34)ccc2n1)c1ccon1` [Compound 208, N-(6-(2-(4-fluorophenyl)imidazo[1,2-a]pyridin-3-yl)imidazo[1,2-b]pyridazin-2-yl)isoxazole-3-carboxamide], the concentration for half-maximal inhibition (IC50) against CK1ε turned out to be 17 nM; at CK1δ it was 1.59 nM.
The like results for `O=C(Nc1cn2nc(-c3c(-c4ccc(F)cc4)ncn3CCO)ccc2n1)c1ccnc(F)c1` [Compound 230, 2-fluoro-N-(6-(4-(4-fluorophenyl)-1-(2-hydroxyethyl)-1H-imidazol-5-yl)imidazo[1,2-b]pyridazin-2-yl)isonicotinamide] were, in that order, 3.38 nM and 0.452 nM.
The like results for `Cc1noc(C)c1C(=O)N1CCC(n2cnc(-c3ccc(F)cc3)c2-c2ccc3nc(NC(=O)c4ccnc(F)c4)cn3n2)CC1` [Compound 57, N-(6-(1-(1-(3,5-dimethylisoxazole-4-carbonyl)piperidin-4-yl)-4-(4-fluorophenyl)-1H-imidazol-5-yl)imidazo[1,2-b]pyridazin-2-yl)-2-fluoroisonicotinamide] were, in that order, 3.42 nM and 0.321 nM.
Taken in the same sequence, the figures for `Cc1nnc(C(=O)Nc2cn3nc(-c4c(-c5ccc(F)cc5)nc(C)n4C)ccc3n2)o1` [Compound 367, N-(6-(4-(4-fluorophenyl)-1,2-dimethyl-1H-imidazol-5-yl)imidazo[1,2-b]pyridazin-2-yl)-5-methyl-1,3,4-oxa-diazole-2-carboxamide] were 49.7 nM and 3.65 nM.
Consider `O=C(Nc1cn2nc(-c3c(-c4ccc(F)cc4)nc4ccccn34)ccc2n1)c1cc(Cl)ncc1C(F)(F)F` [Compound 199, 2-chloro-N-(6-(2-(4-fluorophenyl)imidazo[1,2-a]pyridin-3-yl)imidazo[1,2-b]pyridazin-2-yl)-5-(trifluoromethyl) isonicotinamide], for which the values for the IC50 on CK1ε and on CK1δ were 16.3 nM and 3.24 nM, respectively.
Taken in the same sequence, the figures for `CCc1nc(-c2ccc(F)cc2)c(-c2ccc3nc(NC(=O)c4ccnc(F)c4)cn3n2)n1CC(F)F` [Compound 286, N-(6-(1-(2,2-difluoroethyl)-2-ethyl-4-(4-fluorophenyl)-1H-imidazol-5-yl)imidazo[1,2-b]pyridazin-2-yl)-2-fluoroisonicotinamide] were 6.78 nM and 0.727 nM.
Taken in the same sequence, the figures for `Cc1nc(-c2cccnc2)sc1C(=O)Nc1cn2nc(-c3c(-c4ccc(F)cc4)ncn3C3CNC3)ccc2n1` [Compound 153, N-(6-(1-(azetidin-3-yl)-4-(4-fluorophenyl)-1H-imidazol-5-yl)imidazo[1,2-b]pyridazin-2-yl)-4-methyl-2-(pyridin-3-yl)thiazole-5-carboxamide] were 5.29 nM and 0.204 nM.
